Like-named read-outs stand apart in the source and are kept apart here.
Tests used:
[1] = biological target: T1, Avi-KRAS G12D (1-169) GppNHp/RAF1 RBD-3xFLAG (52-151) (Homo sapiens, UniProt P01116, G12D); test: RAS-effector PPI HTRF disruption assay, Raf1-GppNHp-KRAS G12D; assay type: biochemical
T1 construct: 100 nM Avi-KRAS G12D (1-169) GppNHp
Protocol: (§1) A protein:protein interaction (PPI) Homogeneous Time Resolved Fluorescence (HTRF) assay was used to determine the effectiveness of compounds of the present disclosure in disrupting KRAS protein and effector (RAF1 or PIK3 CA) binding.
(§2) The HTRF assay used the following reagents and proteins: (i) 375 nM Avi-KRAS G12D/Q25A (1-169) GppNHp/3×FLAG-PI3KCA (157-299); (ii) 100 nM Avi-KRAS G12D (1-169) GppNHp/RAF1 RBD-3×FLAG (52-151); (iii) 50 nM Avi-KRAS G12V (1-169) GppNHp/RAF1 RBD-3×FLAG (52-151); (iv) 50 nM Avi-KRAS WT (1-169) GppNHp/RAF1 RBD-3×FLAG (52-151); and (v) 35 nM Avi-PI3K RBD CA-3×FLAG; Assay Buffer: 50 mM Tris pH 7.5, 100 mM NaCl, 5 mM MgCl2, 0.1% BSA, 0.01% Tween, 1 mM TCEP, 10% DMSO; Bead Buffer: 50 mM Tris pH 7.5, 0.01% Tween 20; Assay volume: 20 μL (384 well plate-low volume format); and Compound titration: 100-0.02 μM, 3× dilution series.
(§3) The HTRF assay employed the following protocol:
(§4) Compounds were dispensed in assay plate (384-well, Grenier Bione #784075) using Echo (model 555) with dose response settings: 200 nL final volume, titration from 100 μM as a 10-point dilution series. Protein mix was prepared in assay buffer, and dispensed on plates, 10 μL per well, then incubated for 1 h at room temperature, with 700 rpm shaking. Reagents mix was prepared and dispensed on plates, 10 μL per well, then incubated for 1 h at room temperature, with 700 rpm shaking.
(§5) Plates were analyzed on an Envision plate reader using the following setting: Excitation 320 nm, Bandwidth […]; Emission 615 nm, Bandwidth […], Gain 100%, Flashes 100, Lag 60 μs. Data was reported as percentage of activity, with DMSO as 100%. Data was plotted and analyzed using Prism 8. The SPR Kd, biochemical Raf1-KRAS G12D/G12V/WT-GppNHP and PI3KCA-KRAS G12D/Q25A-GppNHp disruption assay IC50 of selected compounds described herein are shown in Table 4.

[2] = biological target: T2, Avi-KRAS G12D/Q25A (1-169) GppNHp/3xFLAG-PI3KCA (157-299) (Homo sapiens, UniProt P01116, G12D/Q25A); test: RAS-effector PPI HTRF disruption assay, PI3KCA-GppNHp-KRAS G12D/Q25A; assay type: biochemical
T2 construct: 375 nM Avi-KRAS G12D/Q25A (1-169) GppNHp
Protocol: as §1, §2, §3, §4, §5

[3] = biological target: T3, Avi-KRAS G12V (1-169) GppNHp/RAF1 RBD-3xFLAG (52-151) (Homo sapiens, UniProt P01116, G12V); test: RAS-effector PPI HTRF disruption assay, Raf1-GppNHp-KRAS G12V; assay type: biochemical
T3 construct: 50 nM Avi-KRAS G12V (1-169) GppNHp
Protocol: as §1, §2, §3, §4, §5

[4] = biological target: T4, Avi-KRAS WT (1-169) GppNHp/RAF1 RBD-3xFLAG (52-151) (Homo sapiens, UniProt P01116); test: RAS-effector PPI HTRF disruption assay, Raf1-GppNHp-KRAS WT; assay type: biochemical
T4 construct: 50 nM Avi-KRAS WT (1-169) GppNHp
Protocol: as §1, §2, §3, §4, §5

[5] = tested on: pERK in GP2d cells (KRAS G12D); test: Cell-based pERK HTRF assay in GP2d cell; conditions: 60 min incubation
Protocol: A pERK assay (Perkin Elmer) was used to determine the effectiveness of compounds in disrupting KRAS G12D protein/effector signaling in cells.
On Day 1, cells (GP2d) were seeded into 96-well plates at 3×10^4 cells/well in 80 μL complete growth media (DMEM, 10% FBS).
On Day 2, cells were treated with compounds at 0.25% DMSO. The source plate was created with compounds diluted in media at 5-fold the final assay concentration. The compounds were run in a 9-point concentration curve starting at 1 μM, with a half-log dilution between concentrations. 20 μL was transferred onto the cell plates (final volume in wells was 100 μL). Plates were harvested after 60 min incubation by aspirating media and adding kit-supplied 1× supplemented lysis buffer to all wells (50 μL per well). Plates were then placed on a plate shaker and incubated at 850 rpm for an additional 30 min.
Antibody mixture solution is prepared by diluting aliquoted d2 and Eu Cryptate antibodies 1:20 in kit supplied detection buffer, mix the diluted antibodies solutions (1:1 v:v). 4 μL of this solution is then added to a 384-well detection plate (Perkin Elmer; 6008230).
Samples were homogenized by pipetting up and down and then transferred (16 μL of cell lysates) from the 96-well cell culture plate to two wells of the HTRF 384-well detection plate containing the antibody solution. Plates were centrifuged (524 g for 1 min) and allowed to incubate between 4 and 24 h at room temperature. Maximum signal is reached after 4 h incubation time and remains stable over a period of 24 hours. Therefore, readings can be made between 4 and 24 h of incubation. Plates were centrifuged again (524 g for Imin), then analyzed on the EnVision plate reader using the following settings: Excitation 320 nm, Bandwidth 75 nm; Emission 615 nm, Bandwidth 85 nm; Gain 100%; Flashes 100; Lag 60 μs.

T3 sequence (P01116 1-169 isoform P01116-2 G12V): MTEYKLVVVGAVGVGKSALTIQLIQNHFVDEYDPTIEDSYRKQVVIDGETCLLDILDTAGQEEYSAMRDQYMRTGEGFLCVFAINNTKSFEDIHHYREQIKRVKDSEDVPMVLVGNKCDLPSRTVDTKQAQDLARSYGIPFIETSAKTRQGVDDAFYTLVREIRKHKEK
T4 sequence (P01116 1-169 isoform P01116-2): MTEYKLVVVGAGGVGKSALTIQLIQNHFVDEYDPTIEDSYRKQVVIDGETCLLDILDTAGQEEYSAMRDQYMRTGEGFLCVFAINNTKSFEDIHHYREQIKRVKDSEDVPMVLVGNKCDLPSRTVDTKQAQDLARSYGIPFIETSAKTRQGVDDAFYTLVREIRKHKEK
T1 sequence (P01116 1-169 isoform P01116-2 G12D): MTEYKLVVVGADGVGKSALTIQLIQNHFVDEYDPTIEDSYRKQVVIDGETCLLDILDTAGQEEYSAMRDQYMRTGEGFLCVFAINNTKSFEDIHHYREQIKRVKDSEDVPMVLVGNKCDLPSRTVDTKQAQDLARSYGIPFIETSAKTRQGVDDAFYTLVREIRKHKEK
T2 sequence (P01116 1-169 isoform P01116-2 G12D/Q25A): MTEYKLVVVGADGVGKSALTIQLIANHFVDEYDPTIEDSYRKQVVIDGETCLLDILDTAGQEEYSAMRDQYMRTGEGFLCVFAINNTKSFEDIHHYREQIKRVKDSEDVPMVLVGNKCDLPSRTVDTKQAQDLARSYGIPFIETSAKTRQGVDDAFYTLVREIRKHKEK

Row | Structure (SMILES) | IC50 [1] | IC50 [2] | IC50 [3] | IC50 [4] | IC50 ([5]; GP2d, 1 h) | IC50 ([5]; read-out: pERK-Gp2D-1 hr)
1 | Nc1nc2c(-c3c(C(F)(F)F)cc4c(O[C@H]5CCNC5)nc(OC[C@@]56CCCN5C[C@H](F)C6)nc4c3F)ccc(F)c2s1 [Compound 13] | 0.1 to 1 µM | 1 to 10 µM | 1 to 10 µM | 0.1 to 1 µM | ≤ 0.1 µM | –
2 | C[C@H]1C[C@H](Oc2nc(OC[C@@]34CCCN3C[C@H](F)C4)nc3c(F)c(-c4ccc(F)c5sc(N)c(C#N)c45)c(Cl)cc23)CN1 [Compound 54] | 0.1 to 1 µM | 0.1 to 1 µM | 1 to 10 µM | 0.1 to 1 µM | – | 0.1 to 1 µM
3 | C[C@@H]1CNCC1Oc1nc(OC[C@@]23CCCN2C[C@H](F)C3)nc2c(F)c(-c3ccc(F)c4sc(N)nc34)c(C(F)(F)F)cc12 (stereo partly drawn) [Compound 15] | 0.1 to 1 µM | 1 to 10 µM | 1 to 10 µM | 1 to 10 µM | 0.1 to 1 µM | –
4 | Nc1nc2c(-c3ncc4c(O[C@@H]5CCNC5)nc(OC[C@@]56CCCN5C[C@H](F)C6)nc4c3F)c(F)cc(F)c2s1 [Compound 32] | > 10 µM | > 10 µM | > 10 µM | > 10 µM | > 1 µM | –
5 | Nc1nc2c(-c3ncc4c(O[C@@H]5CCNC5)nc(OC[C@@]56CCCN5C[C@H](F)C6)nc4c3F)ccc(F)c2s1 [Compound 24, 7-fluoro-4-(8-fluoro-2-(((2R,7aS)-2-fluorotetrahydro-1H-pyrrolizin-7a(5H)-yl)methoxy)-4-(((R)-pyrrolidin-3-yl)oxy)pyrido[4,3-d]pyrimidin-7-yl)benzo[d]thiazol-2-amine] | > 10 µM | > 10 µM | > 10 µM | > 10 µM | > 1 µM | –
6 | Nc1nc2c(-c3c(C(F)(F)F)cc4c(O[C@H]5CN[C@H](CO)C5)nc(OCC56CCCN5C[C@H](F)C6)nc4c3F)ccc(F)c2s1 (stereo partly drawn) [Compound 52] | 0.1 to 1 µM | 1 to 10 µM | > 10 µM | 1 to 10 µM | 0.1 to 1 µM | –
7 | N#Cc1c(N)sc2c(F)ccc(-c3c(Cl)cc4c(O[C@H]5CCN[C@@H]5CO)nc(OC[C@@]56CCCN5C[C@H](F)C6)nc4c3F)c12 (atropisomer, axis not shown) [Compound 75] | > 10 µM | > 10 µM | > 10 µM | > 10 µM | – | > 1 µM
8 | N#Cc1c(N)sc2c(F)ccc(-c3c(Cl)cc4c(O[C@@H]5CNC[C@@H]5F)nc(OC[C@@]56CCCN5C[C@H](F)C6)nc4c3F)c12 [Compound 63] | 0.1 to 1 µM | 1 to 10 µM | 1 to 10 µM | 1 to 10 µM | 0.1 to 1 µM | –
9 | N#Cc1c(N)sc2c(F)ccc(-c3ccc4c(O[C@H]5CNC[C@H]5F)nc(OC[C@@]56CCCN5C[C@H](F)C6)nc4c3F)c12 [Compound 66] | 1 to 10 µM | 1 to 10 µM | > 10 µM | 1 to 10 µM | 0.1 to 1 µM | –
10 | Nc1nc2c(-c3cc4nc(OC[C@@]56CCCN5C[C@H](F)C6)nc(O[C@H]5CNC[C@H]5F)c4cc3C(F)(F)F)ccc(F)c2s1 [Compound 31] | 1 to 10 µM | > 10 µM | > 10 µM | > 10 µM | > 1 µM | –
11 | N#Cc1c(N)sc2c(F)ccc(-c3ccc4c(O[C@H]5CNC[C@@H]5F)nc(OC[C@@]56CCCN5C[C@H](F)C6)nc4c3F)c12 [Compound 71] | 1 to 10 µM | 1 to 10 µM | > 10 µM | 1 to 10 µM | > 1 µM | –
12 | C[C@@H]1CNCC1Oc1nc(OC[C@@]23CCCN2C[C@H](F)C3)nc2c(F)c(-c3ccc(F)c4sc(N)nc34)c(C(F)(F)F)cc12 (stereo partly drawn) [Compound 16] | 1 to 10 µM | 1 to 10 µM | 1 to 10 µM | 1 to 10 µM | – | 0.1 to 1 µM
13 | C[C@H]1NCC[C@H]1Oc1nc(OC[C@@]23CCCN2C[C@H](F)C3)nc2c(F)c(-c3ccc(F)c4sc(N)c(C#N)c34)c(C(F)(F)F)cc12 (single isomer, unassigned) [Compound 73] | ≤ 0.1 µM | ≤ 0.1 µM | ≤ 0.1 µM | ≤ 0.1 µM | – | ≤ 0.1 µM
14 | C[C@@H]1C[C@H](Oc2nc(OC[C@@]34CCCN3C[C@H](F)C4)nc3c(F)c(-c4ccc(F)c5sc(N)c(C#N)c45)c(Cl)cc23)CN1 (atropisomer, axis not shown) [Compound 60] | 0.1 to 1 µM | 0.1 to 1 µM | 0.1 to 1 µM | 0.1 to 1 µM | – | ≤ 0.1 µM
15 | N#Cc1c(N)sc2c(F)ccc(-c3ncc4c(O[C@@H]5CCNC5)nc(OC[C@@]56CCCN5C[C@H](F)C6)nc4c3F)c12 [Compound 97] | 1 to 10 µM | > 10 µM | > 10 µM | 1 to 10 µM | 0.1 to 1 µM | –
16 | N#Cc1c(N)sc2c(F)ccc(-c3c(C(F)(F)F)cc4c(O[C@@H]5CCN[C@@H]5CF)nc(OC[C@@]56CCCN5C[C@H](F)C6)nc4c3F)c12 [Compound 62] | 0.1 to 1 µM | 1 to 10 µM | 1 to 10 µM | 0.1 to 1 µM | ≤ 0.1 µM | –
17 | C[C@H]1NCC[C@@H]1Oc1nc(OC[C@@]23CCCN2C[C@H](F)C3)nc2c(F)c(-c3ccc(F)c4sc(N)c(C#N)c34)c(Cl)cc12 [Compound 59] | 0.1 to 1 µM | 0.1 to 1 µM | 0.1 to 1 µM | 0.1 to 1 µM | ≤ 0.1 µM | –
18 | N#Cc1c(N)sc2c(F)ccc(-c3c(C(F)(F)F)cc4c(O[C@@H]5CCN[C@@H]5CO)nc(OC[C@@]56CCCN5C[C@H](F)C6)nc4c3F)c12 [Compound 50] | 0.1 to 1 µM | 0.1 to 1 µM | 0.1 to 1 µM | 0.1 to 1 µM | ≤ 0.1 µM | –
19 | Nc1nc2c(-c3c(C(F)(F)F)cc4c(O[C@@H]5CCNC5)nc(OC[C@@]56CCCN5C[C@H](F)C6)nc4c3F)ccc(F)c2s1 (atropisomer, axis not shown) [Compound 5] | > 10 µM | > 10 µM | > 10 µM | > 10 µM | – | –
20 | Nc1nc2c(-c3c(C(F)(F)F)cc4c(O[C@H]5CNC[C@H]5F)nc(OC[C@@]56CCCN5C[C@H](F)C6)nc4c3F)ccc(F)c2s1 [Compound 22, 7-fluoro-4-(8-fluoro-4-(((3S,4R)-4-fluoropyrrolidin-3-yl)oxy)-2-(((2R,7aS)-2-fluorotetrahydro-1H-pyrrolizin-7a(5H)-yl)methoxy)-6-(trifluoromethyl)quinazolin-7-yl)benzo[d]thiazol-2-amine] | > 10 µM | 1 to 10 µM | > 10 µM | 1 to 10 µM | – | –
21 | C[C@H]1CNCC1Oc1nc(OC[C@@]23CCCN2C[C@H](F)C3)nc2c(F)c(-c3ccc(F)c4sc(N)nc34)c(C(F)(F)F)cc12 (stereo partly drawn) [Compound 2] | 1 to 10 µM | 1 to 10 µM | > 10 µM | 1 to 10 µM | – | –
